Key:
[1] = Tissue distribution of 5-halothiophene-2-isopropylamines in Fisher rats (brain uptake and brain:blood); type: in vivo; conditions: for tissue uptake at 5 min / tissue uptake at 0.5 h / tissue uptake at 1 h: rat, brain, read-out: Mean Brain, % Dose/gm
Source text: TISSUE DISTRIBUTION OF 5-HALOTHIOPHENE-
Mean Brain, % Dose/gm (Mean Brain:Blood)

[2] = IMP versus HIPDM, cited from earlier work

CC(N)Cc1ccc([82Br])s1 (centres unmarked) [Br--82]
brain uptake and retention (in words) [1]: good brain uptake and retention | Mean Brain:Blood ([1]; 5 min): 10.4 | Mean Brain:Blood ([1]; 30 min): 4.1 | Mean Brain:Blood ([1]; 60 min): 2.2 | tissue uptake at 5 min ([1]; 5 min): 2.7 %ID/g | tissue uptake at 0.5 h ([1]; 30 min): 2.3 %ID/g | tissue uptake at 1 h ([1]; 60 min): 1.67 %ID/g

CC(N)Cc1ccc([125I])s1 (centres unmarked) [I--125]
brain uptake and retention (in words) [1]: high brain uptake and good retention | brain-to-blood ratios (in words) [1]: high brain-to-blood ratios | Mean Brain:Blood ([1]; 5 min): 6.0 | Mean Brain:Blood ([1]; 30 min): 3.7 | Mean Brain:Blood ([1]; 60 min): 2.1 | tissue uptake at 5 min ([1]; 5 min): 2.77 %ID/g | tissue uptake at 0.5 h ([1]; 30 min): 2.51 %ID/g | tissue uptake at 1 h ([1]; 60 min): 1.42 %ID/g

CC(C)NC(C)Cc1ccc(I)cc1 (centres unmarked) [IMP, N-isopropyl-p-iodoamphetamine]
lung clearance relative to HIPDM [2]: clears the lungs faster | amount of activity in the brain relative to HIPDM ([2]; five minutes after administration): almost twice the amount of activity in the brain
